{"source": "paper PMC8015229", "about": "“Focus on Human Monoamine Transporter Selectivity. New Human DAT and NET Models, Experimental Validation, and SERT Affinity Exploration” (ACS Chemical Neuroscience, 2020)", "key": {"NET [1]": {"target": "T1, NET (Oryctolagus cuniculus, UniProt G1TDF9)", "T1 construct": "tissue Charles River Laboratories, Inc. (animals); host or cells: cerebral cortex of New Zealand White rabbit", "T1 sequence (G1TDF9 1-617)": "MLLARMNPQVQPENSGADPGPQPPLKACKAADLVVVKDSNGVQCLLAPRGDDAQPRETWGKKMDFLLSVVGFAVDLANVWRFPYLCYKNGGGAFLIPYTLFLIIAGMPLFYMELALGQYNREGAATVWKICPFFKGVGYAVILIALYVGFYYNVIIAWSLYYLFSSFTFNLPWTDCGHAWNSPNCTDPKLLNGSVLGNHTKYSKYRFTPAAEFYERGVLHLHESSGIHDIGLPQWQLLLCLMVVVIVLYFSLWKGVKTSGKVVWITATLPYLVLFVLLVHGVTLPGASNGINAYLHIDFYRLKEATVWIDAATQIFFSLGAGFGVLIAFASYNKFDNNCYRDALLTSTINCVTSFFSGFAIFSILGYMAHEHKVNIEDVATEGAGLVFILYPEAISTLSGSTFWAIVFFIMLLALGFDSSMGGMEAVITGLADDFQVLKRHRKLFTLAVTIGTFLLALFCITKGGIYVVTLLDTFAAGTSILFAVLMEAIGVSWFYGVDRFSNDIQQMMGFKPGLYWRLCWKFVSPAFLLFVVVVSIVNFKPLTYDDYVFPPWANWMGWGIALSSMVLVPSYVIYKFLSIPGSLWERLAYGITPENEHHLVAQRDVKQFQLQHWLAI", "assay": "[3H]nisoxetine binding assay to rabbit cortical membranes", "method": "This washing procedure was repeated twice. The resulting pellet was immediately used in the binding assay or frozen at −80 °C until the time of the assay.\nIncubation was carried out at 4 °C for 4 h."}, "DAT [2]": {"target": "T2, DAT (Oryctolagus cuniculus, UniProt Z9V7K4Q734)", "T2 sequence (Z9V7K4Q734 1-627)": "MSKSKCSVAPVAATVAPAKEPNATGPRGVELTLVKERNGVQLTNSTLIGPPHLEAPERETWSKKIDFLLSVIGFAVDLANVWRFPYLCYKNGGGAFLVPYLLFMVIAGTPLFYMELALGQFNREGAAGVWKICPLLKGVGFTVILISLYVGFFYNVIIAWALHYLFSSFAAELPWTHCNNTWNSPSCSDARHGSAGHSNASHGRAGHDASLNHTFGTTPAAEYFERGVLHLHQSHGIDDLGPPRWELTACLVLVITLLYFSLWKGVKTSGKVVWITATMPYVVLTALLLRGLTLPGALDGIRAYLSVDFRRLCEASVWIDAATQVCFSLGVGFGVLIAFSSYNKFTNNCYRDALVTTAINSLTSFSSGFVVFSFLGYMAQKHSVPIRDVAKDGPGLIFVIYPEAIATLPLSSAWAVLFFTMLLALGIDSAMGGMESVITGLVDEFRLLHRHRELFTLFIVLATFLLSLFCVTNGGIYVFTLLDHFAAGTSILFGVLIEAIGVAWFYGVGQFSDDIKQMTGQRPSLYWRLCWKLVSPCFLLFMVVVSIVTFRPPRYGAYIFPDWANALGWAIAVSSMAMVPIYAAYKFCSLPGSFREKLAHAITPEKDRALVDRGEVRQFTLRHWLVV", "assay": "[3H]WIN 35,428 binding assay to rabbit striatal membranes", "settings": "mean ± SE of three or more experiments, tested as hydrochloride salts", "method": "(§1) Membranes used in DAT and SERT binding assays were prepared from frozen rabbit striatum and frontal cortex as previously described.[29]\nDAT binding assays were performed using 2 nM [^3H]WIN 35,428 (specificity activity, 84.5 Ci mmol^–1; PerkinElmer Life Science) as previously described by Nencetti et al.[29]"}, "SERT [3]": {"target": "T3, SERT (Homo sapiens, UniProt P31645)", "T3 sequence (P31645 whole entry)": "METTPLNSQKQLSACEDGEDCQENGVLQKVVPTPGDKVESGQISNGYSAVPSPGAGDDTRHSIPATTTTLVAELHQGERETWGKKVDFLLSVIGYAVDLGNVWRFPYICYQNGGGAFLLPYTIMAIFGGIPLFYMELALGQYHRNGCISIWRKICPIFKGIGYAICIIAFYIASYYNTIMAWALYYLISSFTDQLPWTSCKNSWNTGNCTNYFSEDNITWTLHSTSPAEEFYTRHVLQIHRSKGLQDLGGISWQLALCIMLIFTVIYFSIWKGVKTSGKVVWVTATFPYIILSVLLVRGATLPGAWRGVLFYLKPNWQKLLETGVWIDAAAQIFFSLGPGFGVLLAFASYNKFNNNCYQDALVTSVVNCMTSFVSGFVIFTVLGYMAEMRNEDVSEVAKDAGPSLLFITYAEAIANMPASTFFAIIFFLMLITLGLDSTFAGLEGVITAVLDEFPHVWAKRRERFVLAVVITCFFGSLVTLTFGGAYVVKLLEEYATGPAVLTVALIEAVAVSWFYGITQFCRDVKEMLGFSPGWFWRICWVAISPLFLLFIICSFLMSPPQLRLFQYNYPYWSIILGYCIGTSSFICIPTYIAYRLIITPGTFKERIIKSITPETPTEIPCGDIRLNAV", "assay": "[3H]5-HT uptake to human platelets"}, "DAT [4]": {"target": "T2, DAT", "settings": "rabbit striatal membranes; tested as hydrochloride salts; read-out: [3H]-WIN 35,428, Ki; cited from earlier work"}, "SERT [5]": {"target": "T4, SERT (Oryctolagus cuniculus, UniProt A0A5F9CLU6)", "T4 sequence (A0A5F9CLU6 1-628)": "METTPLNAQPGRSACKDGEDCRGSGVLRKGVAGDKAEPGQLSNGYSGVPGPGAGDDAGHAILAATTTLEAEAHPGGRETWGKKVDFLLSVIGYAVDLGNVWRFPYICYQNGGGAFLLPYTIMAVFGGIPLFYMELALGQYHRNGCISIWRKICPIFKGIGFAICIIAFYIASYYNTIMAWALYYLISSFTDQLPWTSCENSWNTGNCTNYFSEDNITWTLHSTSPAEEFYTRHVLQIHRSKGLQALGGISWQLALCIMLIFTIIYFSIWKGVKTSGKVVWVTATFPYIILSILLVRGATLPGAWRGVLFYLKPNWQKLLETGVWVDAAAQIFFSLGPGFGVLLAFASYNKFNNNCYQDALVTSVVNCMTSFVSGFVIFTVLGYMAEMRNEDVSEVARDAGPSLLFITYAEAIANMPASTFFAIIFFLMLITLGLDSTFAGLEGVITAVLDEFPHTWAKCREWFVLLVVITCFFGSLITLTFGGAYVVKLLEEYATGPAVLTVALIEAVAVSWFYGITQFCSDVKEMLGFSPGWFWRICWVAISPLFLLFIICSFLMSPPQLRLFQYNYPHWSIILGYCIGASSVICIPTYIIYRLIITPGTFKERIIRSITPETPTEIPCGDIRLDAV", "settings": "rabbit cortical membranes; tested as hydrochloride salts; cited from earlier work"}, "SERT [6]": {"target": "T4, SERT", "assay": "[3H]paroxetine binding assay to rabbit cortical membranes", "method": "as §1"}, "SERT [7]": {"target": "T3, SERT", "assay": "[3H]paroxetine binding assay to human platelet membranes"}, "NET [8]": {"target": "T1, NET", "settings": "read-out: [3H]nisoxetine, Ki; rabbit cortical membranes; cited from earlier work"}, "NET [9]": {"target": "NET", "settings": "cited from earlier work"}, "DAT [10]": {"target": "DAT", "settings": "binding affinity for human transporters; cited from earlier work"}, "NET [11]": {"target": "NET", "settings": "binding affinity for rat transporter; cited from earlier work"}, "SERT [12]": {"target": "T3, SERT", "settings": "cited from earlier work"}, "SERT [13]": {"target": "SERT", "settings": "binding affinity for rat transporter; cited from earlier work"}, "[14]": {"settings": "rabbit cortical membranes, tested as hydrochloride salts"}, "[15]": {"settings": "binding affinity for human transporters"}}, "note": "Read-outs that look alike come from different tables or passages of the source."}
{"smiles": "Cl.Fc1ccc(COC2(c3ccc(F)cc3)CCNCC2)cc1", "note": "[20a, 4-((4-Fluorobenzyl)oxy)-4-(4-fluorophenyl)piperidine Hydrochloride]", "values": [{"measurement": "melting point", "value": "158 to 159", "unit": "°C"}, {"measurement": "Ki", "setting": "NET [1]; [14]", "value": 520, "unit": "nM"}, {"measurement": "Ki", "setting": "DAT [2]", "value": "> 100000", "unit": "nM"}]}
{"smiles": "Cl.Fc1ccc(C2(OCc3ccccc3F)CCNCC2)cc1", "note": "[20c, 4-((2-Fluorobenzyl)oxy)-4-(4-fluorophenyl)piperidine Hydrochloride]", "values": [{"measurement": "melting point", "value": 202, "unit": "°C"}, {"measurement": "Ki", "setting": "NET [1]; [14]", "value": 400, "unit": "nM"}, {"measurement": "Ki", "setting": "DAT [2]", "value": "> 100000", "unit": "nM"}]}
{"smiles": "Cl.Fc1ccc(C2(OCc3ccc4c(c3)OCO4)CCNCC2)cc1", "note": "[20d, 4-(Benzo[D][1,3]dioxol-5-ylmethoxy)-4-(4-fluorophenyl)piperidine Hydrochloride]", "values": [{"measurement": "IC50", "setting": "SERT [3]", "value": "2.64 ± 0.3", "unit": "nM"}, {"measurement": "Ki", "setting": "SERT [3]", "value": 1.75, "unit": "nM"}, {"measurement": "Ki", "setting": "DAT [4]", "value": "> 100000", "unit": "nM"}, {"measurement": "Ki", "setting": "NET [1]; [14]", "value": 1740, "unit": "nM"}, {"measurement": "[3H]paroxetine, Ki", "setting": "SERT [5]", "value": "picomolar range"}, {"measurement": "potency as inhibitor of [3H]paroxetine binding relative to unlabeled paroxetine", "setting": "SERT [6]", "value": "~10", "unit": "fold"}, {"measurement": "Ki", "setting": "SERT [7]", "value": "1.71 ± 0.15", "unit": "nM"}]}
{"smiles": "Cl.Fc1ccc(COC2(c3ccc(C(F)(F)F)cc3)CCNCC2)cc1", "note": "[21a, 4-((4-Fluorobenzyl)oxy)-4-(4-(trifluoromethyl)phenyl)piperidine Hydrochloride]", "values": [{"measurement": "melting point", "value": "261 °C (dec.)"}, {"measurement": "Ki", "setting": "NET [1]", "value": "> 10000", "unit": "nM"}, {"measurement": "Ki", "setting": "DAT [2]", "value": "> 100000", "unit": "nM"}]}
{"smiles": "Cl.FC(F)(F)c1ccc(COC2(c3ccc(C(F)(F)F)cc3)CCNCC2)cc1", "note": "[21b, 4-((4-(Trifluoromethyl)benzyl)oxy)-4-(4-(trifluoromethyl)phenyl)piperidine Hydrochloride]", "values": [{"measurement": "IC50", "setting": "SERT [3]", "value": "4.2 ± 0.4", "unit": "nM"}, {"measurement": "Ki", "setting": "SERT [3]", "value": 2.77, "unit": "nM"}, {"measurement": "Ki", "setting": "DAT [4]", "value": "> 100000", "unit": "nM"}, {"measurement": "melting point", "value": "189 to 190", "unit": "°C"}, {"measurement": "Ki", "setting": "NET [1]; [14]", "value": "> 10000", "unit": "nM"}, {"measurement": "[3H]paroxetine, Ki", "setting": "SERT [5]", "value": "picomolar range"}, {"measurement": "Ki", "setting": "SERT [7]", "value": "5.6 ± 0.52", "unit": "nM"}]}
{"smiles": "Cl.Fc1ccccc1COC1(c2ccc(C(F)(F)F)cc2)CCNCC1", "note": "[21c, 4-((2-Fluorobenzyl)oxy)-4-(4-(trifluoromethyl)phenyl)piperidine Hydrochloride]", "values": [{"measurement": "melting point", "value": "210 °C (dec.)"}, {"measurement": "Ki", "setting": "NET [1]; [14]", "value": 2070, "unit": "nM"}, {"measurement": "Ki", "setting": "DAT [2]", "value": 11100, "unit": "nM"}]}
{"smiles": "Cl.FC(F)(F)c1ccc(C2(OCc3ccc4c(c3)OCO4)CCNCC2)cc1", "note": "[21d, 4-(Benzo[d][1,3]dioxol-5-ylmethoxy)-4-(4-(trifluoromethyl)phenyl)piperidine Hydrochloride]", "values": [{"measurement": "IC50", "setting": "SERT [3]", "value": "4.9 ± 0.5", "unit": "nM"}, {"measurement": "Ki", "setting": "SERT [3]", "value": 3.26, "unit": "nM"}, {"measurement": "Ki", "setting": "DAT [4]", "value": 11200, "unit": "nM"}, {"measurement": "Ki", "setting": "NET [1]; [14]", "value": 2450, "unit": "nM"}, {"measurement": "[3H]paroxetine, Ki", "setting": "SERT [5]", "value": "picomolar range"}, {"measurement": "Ki", "setting": "SERT [7]", "value": "8.72 ± 0.93", "unit": "nM"}]}
{"smiles": "Fc1ccc([C@@H]2CCNC[C@H]2COc2ccc3c(c2)OCO3)cc1", "note": "[compound 1, paroxetine]", "values": [{"measurement": "Ki", "setting": "NET [8]", "value": "80 ± 1", "unit": "nM"}]}
{"smiles": "COc1ccc(OC[C@H]2CN(C)CC[C@@H]2c2ccccc2)cc1", "note": "[compound 4, femoxetine]", "values": [{"measurement": "NET pKi exp", "setting": "NET [9]; [15]", "value": 6.12}, {"measurement": "DAT pKi exp", "setting": "DAT [10]", "value": 5.7}]}
{"smiles": "CNCC[C@@H](Oc1ccccc1C)c1ccccc1", "note": "[compound 6, atomoxetine]", "values": [{"measurement": "DAT pKi exp", "setting": "DAT [10]", "value": 5.8}]}
{"smiles": "CNCCC(Oc1ccccc1OC)c1ccccc1", "note": "(stereo not drawn) [compound 8, nisoxetine]", "values": [{"measurement": "NET pKi exp", "setting": "NET [11]", "value": 9.34}]}
{"smiles": "COC(=O)[C@H]1[C@@H](c2ccc(Cl)cc2)C[C@@H]2CC[C@H]1N2C", "note": "[compound 9, RTI-31]", "values": [{"measurement": "NET pKi exp", "setting": "NET [9]", "value": 7.4}, {"measurement": "DAT pKi exp", "setting": "DAT [10]", "value": 8.57}]}
{"smiles": "COC(=O)[C@H]1[C@@H](c2ccc(I)cc2)C[C@@H]2CC[C@H]1N2C", "note": "[compound 10, RTI-55]", "values": [{"measurement": "NET pKi exp", "setting": "NET [9]", "value": 7.7}, {"measurement": "DAT pKi exp", "setting": "DAT [10]", "value": 8.41}, {"measurement": "SERT pKi exp", "setting": "SERT [12]", "value": 8.4}]}
{"smiles": "COCCCC/C(=N\\OCCN)c1ccc(C(F)(F)F)cc1", "note": "[compound 11, fluvoxamine]", "values": [{"measurement": "DAT pKi exp", "setting": "DAT [10]", "value": 5.03}]}
{"smiles": "c1ccc(CCCN2CCN(CCOC(c3ccccc3)c3ccccc3)CC2)cc1", "note": "[compound 13, GBR-12935]", "values": [{"measurement": "NET pKi exp", "setting": "NET [9]; [15]", "value": 6.2}]}
{"smiles": "c1ccc2c(CCC3CCNCC3)c[nH]c2c1", "note": "[compound 14, indalpine]", "values": [{"measurement": "NET pKi exp", "setting": "NET [9]; [15]", "value": 6.29}, {"measurement": "DAT pKi exp", "setting": "DAT [10]", "value": 6}, {"measurement": "SERT pKi exp", "setting": "SERT [12]; [15]", "value": 8.76}]}
{"smiles": "CCOc1ccccc1OCC1CNCCO1", "note": "(stereo not drawn) [compound 16, viloxazine]", "values": [{"measurement": "NET pKi exp", "setting": "NET [9]", "value": 6.81}, {"measurement": "DAT pKi exp", "setting": "DAT [10]", "value": 5}]}
{"smiles": "CN1[C@H]2CC[C@@H]1[C@@H](C(=O)N1CCCC1)[C@@H](c1ccc(I)cc1)C2", "note": "[compound 17, RTI-229]", "values": [{"measurement": "NET pKi exp", "setting": "NET [9]; [15]", "value": 6.22}, {"measurement": "SERT pKi exp", "setting": "SERT [12]", "value": 6.8}]}
{"smiles": "CN(C)C/C=C(/c1ccc(Br)cc1)c1cccnc1", "note": "[compound 18, zimelidine]", "values": [{"measurement": "DAT pKi exp", "setting": "DAT [10]", "value": 4.93}]}
{"smiles": "CN1C2CCC1C(C(=O)Oc1ccccc1)C(c1ccc(Cl)cc1)C2", "note": "(stereo not drawn) [compound 19, RTI-113]", "values": [{"measurement": "SERT pKi exp", "setting": "SERT [13]", "value": 6.67}, {"measurement": "NET pKi exp", "setting": "NET [11]", "value": 5.75}]}
{"smiles": "Cl.Fc1ccc(C2(OCc3ccc(C(F)(F)F)cc3)CCNCC2)cc1", "note": "[compound 20b, 4-(4-Fluorophenyl)-4-((4-(trifluoromethyl)benzyl)oxy)piperidine Hydrochloride]", "values": [{"measurement": "IC50", "setting": "SERT [3]", "value": "0.13 ± 0.01", "unit": "nM"}, {"measurement": "Ki", "setting": "SERT [3]", "value": 0.08, "unit": "nM"}, {"measurement": "type of inhibition of [3H]5-HT uptake", "setting": "SERT [3]; human platelets, Lineweaver-Burk plot, Vmax unchanged, Km changed", "value": "competitive"}, {"measurement": "Ki", "setting": "DAT [4]", "value": "> 100000", "unit": "nM"}, {"measurement": "melting point", "value": "184 to 185", "unit": "°C"}, {"measurement": "Ki", "setting": "NET [1]; [14]", "value": 10000, "unit": "nM"}, {"measurement": "[3H]paroxetine, Ki", "setting": "SERT [5]", "value": "picomolar range"}, {"measurement": "potency as inhibitor of [3H]paroxetine binding relative to unlabeled paroxetine", "setting": "SERT [6]", "value": "~10", "unit": "fold"}, {"measurement": "Ki", "setting": "SERT [7]", "value": "0.17 ± 0.02", "unit": "nM"}]}
